# According to US20070149439A1 (priority 2001, published 2007):
# Where “and” joins values, the source holds several entries; their conditions need not be identical. Equal values may be shown once. Read-outs that look alike come from different tables or passages of the source. Where no end group is shown, it is not given here.
# Tests used:
# [1] = system: cerebral cortical precursors of E15.5 rat embryos; test: [3H]thymidine incorporation (DNA synthesis) in cerebral hemispheres after transuterine intracerebroventricular injection; format: in vivo; settings: vs vehicle
# Procedure: Transuterine intracerebroventricular injection. Intraventricular injection was done as described. […] Dye enhancement of the ventricles indicated successful injections.
# Quantification. Newly synthesized DNA was measured after TCA precipitation. Tissues were homogenized in 10 volumes of distilled water. After reserving aliquots to assess total tissue [^3H]dT uptake, DNA was precipitated with 10% TCA, centrifuged, and washed twice in 10% TCA. Pellets were dissolved and counted along with aliquots by scintillation spectrometry.
# [2] = molecular target: T1, PAC1 (Homo sapiens, UniProt P41586); settings: higher affinity than PACAP6-38; cited from earlier work
# T1 sequence (P41586 21-468): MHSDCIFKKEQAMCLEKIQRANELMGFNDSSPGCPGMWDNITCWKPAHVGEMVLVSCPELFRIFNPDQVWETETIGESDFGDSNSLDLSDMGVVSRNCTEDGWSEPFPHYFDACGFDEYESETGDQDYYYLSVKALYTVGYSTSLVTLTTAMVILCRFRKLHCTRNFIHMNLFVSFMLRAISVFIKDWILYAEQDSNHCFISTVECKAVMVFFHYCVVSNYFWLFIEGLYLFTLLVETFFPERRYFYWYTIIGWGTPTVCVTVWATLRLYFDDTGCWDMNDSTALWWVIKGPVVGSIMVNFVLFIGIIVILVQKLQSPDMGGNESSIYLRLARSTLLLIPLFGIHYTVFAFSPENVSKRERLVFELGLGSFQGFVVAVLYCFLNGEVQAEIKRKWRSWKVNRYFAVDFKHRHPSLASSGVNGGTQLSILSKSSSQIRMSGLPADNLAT
# [3] = system: VZ precursors of E15.5 rat cortex
# Description: (§1) For BrdU immunohistochemistry, E15.5 and E18.5 tissues were fixed in 4% PFA, paraffin-embedded, and sectioned (4 μm) coronally. E20.5 tissues were perfusion-fixed in 2% PFA, cryoprotected, and sectioned at 15 μm. The tissues were immunostained. Then, the tissues were double-labeled with antibodies to neuron specific markers TuJ1 (1:200, Biogenesis, Poole, United Kingdom), tau (1:200, I. Fischer, Med. Coll. Penn.) and MAP2c (1:2000, I. Fischer) or glial markers, vimentin (1:4, Roche) and GFAP (1:1000, Sigma), visualizing with Texas Red for BrdU and FITC for phenotypic markers. TUNEL assay was done according to the manufacturer (Oncor, Gaithersburg, Md.) on sections adjacent to those used for BrdU.
# (§2) Transuterine intracerebroventricular injection. Intraventricular injection was done as described. Following anesthesia (ketamine 30 mg per kg/xylazine 3 mg per kg) and laparotomy of E15.5 pregnant dams, 1 μl of vehicle or factors and 0.05% fast green was delivered into the embryonic lateral ventricle through the uterine wall, using drawn capillary pipettes. Dye enhancement of the ventricles indicated successful injections. After closure, dams were injected subcutaneously with markers of DNA synthesis, [^3H]dT (4 μCi/g, NEN) and BrdU (100 μg/g) at 3 h and sacrificed at 4 h. One embryonic hemisphere was assayed for [^3H]dT incorporation and the other for immunohistochemistry.
# (§3) For labeling index, the analysis was done in the dorsolateral sector of 3 non-adjacent coronal cortex sections per brain, using a camera lucida (Zeiss, Thornwood, N.Y.) under 400× magnification. For E15.5 sections, BrdU(+) nuclei and total nuclei were scored within a 100 μm×100, μm sector based on the ventricular surface extending to the pial surface. BrdU(+) cells in the CP were counted in centrally located sectors extending 100 μm (E18.5 sections) or 200 μm (E20.5 sections) in the mediolateral dimension.
# [4] = system: BrdU-labeled precursors in the CP
# Description: as §1, §2, §3
# [5] = system: cortical precursors in culture; settings: cited from earlier work
# [6] = injectant volume 1 μl ICV at E15.5, 4 h
molecule,measurement,setting,value
M65: newly defined PAC1 antagonist derived from sand fly peptide maxadilan,% Stimulation of DNA synthesis ([3H]dT incorporation),[1]; [6],14% and 13.4 ± 4.6 %
same,% Stimulation of DNA synthesis ([3H]dT incorporation),"[1]; injectant volume 2 μl (twice the dose) ICV at E15.5, 4 h",20% and 20.1 ± 7.0 %
same,affinity for PAC1 relative to PACAP6-38,[2],6 fold
PACAP6-38: specific PAC1 antagonist (FTDSYSRYRKQMAVKKYLAAVLGKRYKQRVKNK; ends and bridges not checked),% Stimulation of DNA synthesis ([3H]dT incorporation),[1]; [6],10±2.2%
Pituitary Adenylate Cyclase-Activating Polypeptide [PACAP],"Labeling Index (LI), BrdU(+) nuclei in VZ","[3]; 4 hours after ICV injection at E15.5, n=6/group",26±1.3%
same,decrease of Labeling Index / mitotic labeling,"[3]; 4 hours after ICV injection at E15.5, vs vehicle",25% and 26%
same,less mitotically labeled (BrdU+) cells in the CP,[4]; 3 days (E18.5) after PACAP administration at E15.5,38%
same,less mitotically labeled (BrdU+) cells in the CP,[4]; 5 days (E20.5) after PACAP administration at E15.5,33%
same,"decrease of DNA synthesis, [3H]dT incorporation into cerebral hemispheres","[1]; PACAP 10^-5 M, ICV into E15.5 rat lateral ventricle, four hours later",24%
same,"effect on proliferative effects of mitogenic IGF-I, bFGF and EGF",[5],inhibited proliferative effects
Nc1ncnc2c1ncn2[C@@H]1O[C@@H]2CO[P@@](O)(=S)O[C@H]2[C@H]1O [Rp-cAMPS],% Stimulation of DNA synthesis ([3H]dT incorporation),[1]; [6],28.3 ± 3.1 %
